The target in one series is T1, V3 receptor (Rattus norvegicus, UniProt P48974).
T1 construct: Anterior pituitary corticotrophs were prepared from adult female Sprague-Dawley rats; from tissue; host or cells: primary anterior pituitary corticotrophs from adult female Sprague-Dawley rats
T1 sequence (P48974 1-425): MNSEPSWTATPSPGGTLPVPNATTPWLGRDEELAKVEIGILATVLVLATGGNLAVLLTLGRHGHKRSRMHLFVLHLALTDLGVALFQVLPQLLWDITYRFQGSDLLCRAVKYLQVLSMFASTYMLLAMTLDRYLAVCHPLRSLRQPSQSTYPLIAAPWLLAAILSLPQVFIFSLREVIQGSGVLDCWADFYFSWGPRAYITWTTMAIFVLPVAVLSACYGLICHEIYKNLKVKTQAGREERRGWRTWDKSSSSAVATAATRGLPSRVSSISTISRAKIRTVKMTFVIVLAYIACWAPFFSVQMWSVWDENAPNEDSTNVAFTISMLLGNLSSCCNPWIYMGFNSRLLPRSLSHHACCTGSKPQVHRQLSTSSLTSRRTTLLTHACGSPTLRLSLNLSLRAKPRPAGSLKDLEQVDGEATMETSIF
Nature of the series: Block of AVP-induced ACTH release from rat anterior pituitary corticotrophs. The format is cell-based. As to conditions: inhibition of ACTH release induced by 3×10^-9 mol.L^-1 AVP, ELISA; read-out: V3 receptor antagonism in isolated rat anterior pituitary cells. Here is the method: The ability of compounds of the invention to act as V3 antagonists in a physiologically relevant system was determined by measuring their ability to block the release of adrenocorticotropic hormone (ACTH) from anterior pituitary corticotrophs in response to treatment with arginine vasopressin (AVP).
Anterior pituitary corticotrophs were prepared from adult female Sprague-Dawley rats and seeded into 48 well plates. The cells were cultured for 4 days prior to exposure to compound. Test compounds were prepared at […] in 100% DMSO. Cells were exposed to a dose response of test compounds for 20 minutes (10^−8 mol.L^−1-10^−5 mol.L^−1). The final concentration of DMSO in the assay was kept constant at 0.3%. The cells were then exposed to 3×10^−9 mol.L^−1 AVP for 120 minutes. Supernatants were harvested and stored at −20° C. ACTH levels were subsequently measured by ELISA following the manufacturer's instructions (Immunodiagnostic systems, UK (Cat No. DX-SDX018)). Each treatment was carried out in quadruplicate and a mean value obtained for the amount of ACTH released. The degree of antagonism was then calculated as a percentage of the amount of ACTH released by agonist alone after adjustment for basal levels of ACTH. A pIC50 was calculated by fitting a Sigmoidal dose response (variable slope) curve with a non-linear (fit) to the data using the software package GraphPad prism. […]

On to `COc1cccc(-c2nc3ccc(OCCCN4CCCCC4)cc3c(=O)n2CC(=O)NC(C)C)c1` [EXAMPLE 2h, N-Isopropyl-2-[2-(3-methoxyphenyl)-4-oxo-6-(3-piperidin-1-ylpropoxy)-4H-quinazolin-3-yl]acetamide], for which the IC50 on V3 receptor was in the range of 10 to 100 nM.
Same read-out and setting: the same measure for `COc1cccc(-c2nc3ccc(-c4cccc(CN(C)C)c4)cc3c(=O)n2CC(=O)NC(C)C)c1` [EXAMPLE 7k, 2-[6-(3-Dimethylaminomethylphenyl)-2-(3-methoxyphenyl)-4-oxo-4H-quinazolin-3-yl]-N-isopropylacetamide]: 100 to 1000 nM.
As for `CCN(CC)C[C@H](C)COc1ccc2nc(-c3cccc(OC)c3)n(CC(=O)NC(C)C)c(=O)c2c1` [Example 4a, (S)-(+)-2-[6-(3-Diethylamino-2-methylpropoxy)-2-(3-methoxyphenyl)-4-oxo-4H-quinazolin-3-yl]-N-isopropylacetamide], the melting point (usually the temperature of the solid-liquid transition) lay within 161 to 163 °C.

The values above are taken from US7807686B2, “2-(4-oxo-4H-quinazolin-3-yl)acetamides and their use as vasopressin V3 antagonists” (N.V. Organon, priority 2005, dated 2010).
